Data on four molecules can be found in ChEMBL document CHEMBL1201862, “PubChem BioAssay data set” (2004).

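A five-concentration, 48-hour dose response in 96-well plates underlies each endpoint, interpolated linearly between surrounding concentrations. At the GI50, growth is halved.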 The source made the active and inactive calls. No stated cut-off is given here; in the data, active = GI50 up to about 1.1 µM and inactive = higher.

Test systems include HCC 2998; EKVX; MDA-MB-231; Hs-578T; SR; NCI/ADR-RES; DU-145; COLO 205; SNB-75; TK-10; HL-60; K562; NCI-H460; HCT-116; SK-MEL-2; MDA-N; PC-3; IGROV-1; HOP-92.
Common to all, as to assay: NCI anticancer screen, dose series, 48 h

As to `CCOC(=O)CCC(NC(=O)c1ccc(OCc2nc3ccccc3n3cccc23)cc1)C(=O)OCC` (stereo unspecified), the GI50 in the assay on HCC 2998 was > 100 µM (inactive); with EKVX, > 100 µM (inactive); with MDA-MB-231 it was > 100 µM (inactive); in the assay with Hs-578T it was 64.4 µM (inactive); with SR, 9.62 µM (inactive); with NCI/ADR-RES, > 100 µM (inactive). For the same molecule, the GI50 is 74.1 µM (inactive) with DU-145; > 100 µM (inactive) with COLO 205; 29.2 µM (inactive) with SNB-75; > 100 µM (inactive) with TK-10; 11.5 µM (inactive) with HL-60; 16.5 µM (inactive) in the assay on K562. Besides, the GI50 in the assay with NCI-H460 is > 100 µM (inactive); with HCT-116, 36.3 µM (inactive); with SK-MEL-2, > 100 µM (inactive); with MDA-N, > 100 µM (inactive); in the assay with PC-3 it was 26.6 µM (inactive); in the assay on IGROV-1, 31.6 µM (inactive). Besides, the GI50 in the assay on HOP-92 is 45.6 µM (inactive).
As to `Oc1cccc2c1[nH]c1c(C3=C[C@@]4(O)CC/C=C\CCCCN5CC[C@@H]3[C@]3(CC6/C=C\CCCCN6[C@H]34)C5)nccc12` (stereo partly specified), the GI50 in the assay with HCC 2998 was 0.384 µM (active); with EKVX, 1.23 µM (inactive); in the assay on MDA-MB-231 it was 1.19 µM (inactive); with Hs-578T it was 1.63 µM (inactive); in the assay on SR it was 0.578 µM (active); in the assay with NCI/ADR-RES it was 2.17 µM (inactive). In addition, the GI50 in the assay on DU-145 was 1.15 µM (inactive); with COLO 205, 0.787 µM (active); in the assay with SNB-75, 0.946 µM (active); with TK-10, 1.9 µM (inactive); with HL-60, 0.667 µM (active); in the assay on K562, 0.607 µM (active). Besides, the GI50 with NCI-H460 is 0.65 µM (active); with HCT-116 it was 1.38 µM (inactive); in the assay with SK-MEL-2, 1.47 µM (inactive); in the assay on MDA-N it was 0.771 µM (active); in the assay on PC-3 it was 0.738 µM (active); in the assay with IGROV-1, 1.02 µM (active). The GI50 with HOP-92 is 0.226 µM (active).
As to `COc1ccc2oc(=O)cc(C)c2c1`, the GI50 in the assay with HCC 2998 is > 100 µM (inactive); in the assay on EKVX, 21 µM (inactive); in the assay on MDA-MB-231, > 100 µM (inactive); in the assay on Hs-578T, > 100 µM (inactive); in the assay on SR, > 100 µM (inactive); in the assay on NCI/ADR-RES, > 100 µM (inactive). Besides, the GI50 in the assay on DU-145 is > 100 µM (inactive); with COLO 205 it was > 100 µM (inactive); in the assay with SNB-75, 88.5 µM (inactive); in the assay on TK-10 it was > 100 µM (inactive); with HL-60, > 100 µM (inactive); with K562, > 100 µM (inactive). Moreover, the GI50 in the assay with NCI-H460, in the assay on HCT-116, with SK-MEL-2, in the assay with MDA-N, in the assay on PC-3 and in the assay with IGROV-1 was > 100 µM (inactive) in each case. In the assay on HOP-92, the GI50 was > 100 µM (inactive).
Turning to `COc1ccccc1N1C(=O)/C(=C\c2cccc(Oc3ccccc3)c2)SC1c1ccccc1` (stereo unspecified), the GI50 with HCC 2998 is 25.7 µM (inactive); in the assay on EKVX, 15.9 µM (inactive); in the assay with MDA-MB-231 it was > 100 µM (inactive); in the assay on Hs-578T it was 39.4 µM (inactive); in the assay with SR, 19.6 µM (inactive); in the assay on NCI/ADR-RES it was 59.6 µM (inactive). For the same molecule, the GI50 was 57.5 µM (inactive) in the assay on DU-145; 15.3 µM (inactive) in the assay on COLO 205; 39.6 µM (inactive) in the assay with SNB-75; > 100 µM (inactive) in the assay on TK-10; < 0.01 µM (active) in the assay on HL-60; 15 µM (inactive) in the assay on K562. The GI50 in the assay on NCI-H460 was 49 µM (inactive); in the assay with HCT-116 it was 16.5 µM (inactive); in the assay with SK-MEL-2, 29.9 µM (inactive); in the assay on MDA-N it was 23.9 µM (inactive); in the assay on PC-3, 58.5 µM (inactive); in the assay on IGROV-1, 21.1 µM (inactive). For the same molecule, the GI50 in the assay on HOP-92 is 21.1 µM (inactive).
